In paper PMC12491715 (Acta Pharmaceutica Sinica. B, 2025):

Experiments:
[1] = test system: caspase-3 activity in SH-SY5Y cells; assay: Caspase-3 activity in lysates of Aβ1–42-treated cells; format: cell-based, human; settings: 5 μmol/L compound, 5 μmol/L fibrillar Aβ1–42, 24 h
Procedure: Cell culture and treatments The human neuroblastoma SH-SY5Y cell line was purchased from American Type Culture Collection (Manassas, VA, USA). Cells were cultured in Advanced Dulbecco’s modified Eagle’s medium (Gibco, Thermo Fisher Scientific, Waltham, MA, USA) supplemented with 10% fetal bovine serum (FBS, Gibco), 2 mmol/L L-glutamine, 50 U/mL penicillin and 50 μg/mL streptomycin (Sigma, St. Louis, MO, USA) in a humidified atmosphere of 95% air and 5% CO2 at 37 °C, and grown to 80% confluence. Prior to cell treatment, complete medium was replaced with serum-reduced medium (i.e., with 2% FBS). Compounds were prepared as a stock solution of 50 mmol/L in DMSO.
Caspase-3 activity and Western blot analysis The activity of caspases-3 was determined in total cell lysates of the SH-SY5Y cells treated as described. […] Following cell treatment for 24 h, cell lysates were prepared, and the caspase-3 activity was assessed using the fluorescent peptide substrate N-acetyl-L-α-aspartyl-L-α-glutamyl-L-valyl-N-[2-oxo-4-(trifluoromethyl)-2H-1-benzopyran-7-yl]-L-α-asparagine (Ac-DEVD-AFC; Bachem). […] Immediately after the addition of the substrate, fluorescence was monitored continuously for 30 min at an excitation wavelength of 405 nm and an emission wavelength of 535 nm using a Tecan Safire[2] fluorescence microplate reader. […]

[2] = pKa from solubility and partition measurements; format: physicochemical; settings: break in the logP vs. pH and log(solubility) vs. pH plot
Procedure: The supernatants were diluted 1:5 with 50% MeCN or used directly for UPLC analysis (calibration curve was constructed from 0.5–100 mg/L standard solutions of compound 8).
Shake-flask partition coefficient measurement was done according to OECD guideline 107 (27. 7. 1995) and EPA OPPTS 830.7550 guideline (1996). Briefly, PBS pH 7.4 buffer (50 mL) and n-octanol (50 mL) were thoroughly shaken to ensure saturation of both phases and left to separate. Compound 8 stock solution in n-octanol (approx. 1000 mg/L) was accurately pipetted into Eppendorf tubes (500, 1000, 500 μL, respectively) and n-octanol-saturated PBS pH 7.4 buffer (500, 500, 1000 μL, respectively) was added. Each solvent ratio was done in duplicates. The Eppendorf tubes were thoroughly shaken to ensure partition and centrifuged (5000 × g, 10 min) to separate the phases. Water phase (carefully sampled using needle and syringe) was transferred to HPLC vials directly, whereas n-octanol phases were diluted with MeCN (10–50×) prior to analysis. Additional dilutions were carried out, if needed.

hBChE = hBChE (Homo sapiens, UniProt P06276); assay: hBChE binding kinetics: carbamoylation and decarbamoylation, initial velocity measurements; format: biochemical
Sequence of hBChE (P06276 29-602): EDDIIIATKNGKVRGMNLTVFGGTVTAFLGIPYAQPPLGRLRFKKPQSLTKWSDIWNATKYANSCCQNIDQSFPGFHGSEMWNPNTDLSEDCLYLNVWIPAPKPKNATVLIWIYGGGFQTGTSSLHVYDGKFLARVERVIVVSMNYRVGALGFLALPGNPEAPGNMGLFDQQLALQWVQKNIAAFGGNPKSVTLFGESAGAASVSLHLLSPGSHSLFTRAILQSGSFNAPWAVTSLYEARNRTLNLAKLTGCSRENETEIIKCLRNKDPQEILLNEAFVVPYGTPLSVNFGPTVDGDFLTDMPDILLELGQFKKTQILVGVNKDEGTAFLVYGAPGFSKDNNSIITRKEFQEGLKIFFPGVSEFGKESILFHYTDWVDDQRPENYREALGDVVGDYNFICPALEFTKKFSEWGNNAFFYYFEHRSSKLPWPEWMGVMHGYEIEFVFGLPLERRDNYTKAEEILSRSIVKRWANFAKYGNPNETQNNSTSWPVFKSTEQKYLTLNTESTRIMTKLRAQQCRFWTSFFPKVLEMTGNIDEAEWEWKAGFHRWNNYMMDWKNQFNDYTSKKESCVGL
Procedure: The progress curves for the time courses of product formation for the hydrolysis of butyrylthiocholine iodide were measured on an Agilent Cary 3500 UV–VIS spectrophotometer with Compact Peltier (thermostated at 25 °C) at 412 nm using a 0.6 mL cuvette (optical path–0.5 cm). 30 mmol/L Tris buffer pH 7.0 with 1 mg/mL BSA and 0.02% NaN3 was used and all dilutions were done in glass vessels (note: dilute hBChE solutions rapidly lose activity, presumably due to adsorption to plastic, preventing meaningful decarbamoylation assays. In our hands, under the above conditions only, the diluted and stock solutions of hBChE were stable for at least a month at room temperature.). Total volume in the cuvette was always 500 μL, and enzyme solutions that gave upon dilution v0 = (dA/dt) ≈ 0.5 (for carbamoylation) and ≈ 1 for (for decarbamoylation) were used. For carbamoylation experiments, 0.5–1 μL of enzyme stock, 5 μL of compound solution, and 484 μL of buffer were preincubated for the specified time, then 10 μL of the mixture of 25 mmol/L Ellman’s reagent (DTNB) and 20 mmol/L butyrylthiocholine (large excess to prevent substrate depletion) were added, quickly mixed, and measurement started. […] The data analysis followed the literature[63]^,[98].

BALB/c mice = assay: Acute in vivo toxicity
From the text: All mice used were 9–15 weeks old wild-type BALB/c mice bred in the Laboratory of Animal Genomics at the Faculty of Veterinary Medicine, University of Ljubljana. For intravenous administration, 4 males and one female were additionally purchased from Envigo RMS Holding Corp. Mice were conventionally bred in open polycarbonate cages (Tecniplast, Buguggiate, Italy) and provided with wood chip bedding (Lignocel®, Rettenmaier and Sons, Germany). Mice were kept under standard conditions, i.e., a 12:12 dark–light cycle (LED, CCT 3000 K, ≤ 25 lux above the cage), at temperature 21–24 °C, and 50%–60% humidity. They were fed irradiated rodent diet with minimal levels of phytoestrogens (Teklad global 16% protein rodent diet®, BN 2916, Envigo, Udine, Italy) and had access to drinkable tap water ad libitum. The in vivo study was evaluated by the National Ethics Committee for Animal Experiments and approved by the Veterinary Administration of the Republic of Slovenia; license number document no. U34401-10/2021/8, U34401-10/2021/13, and U34401-10/2021/1.
According to the OECD guidelines for acute toxicity testing, compound 8 was initially tested at 10 mg/kg dosage (10-fold the intended therapeutic dose (1 mg/kg)) in 3 female mice and repeated on 3 additional animals. […] After this fasting period, the animals were weighed and compound 8 was administered by oral gavage at 200 μL/20 g body weight using flexible plastic feeding tubes (20G × 30 mm, Instech Laboratories, USA). After administration, the animals were not fed for an additional hour. The mice were then observed regularly for the first 24 h, with particular attention paid to the first 4 h, and then daily for a total of 14 days, with attention paid to the changes in respiratory rate, heart rate, skin and fur, eyes and mucous membranes, behavioural patterns, and especially to the acute CNS toxicity symptoms (tremors, twitching, salivation, diarrhoea, lethargy, sleep, coma). At the end of the 14-day observation period, all experimental animals were euthanized with CO2 and cervical dislocation.

CCN(CC)C(=O)n1cnc(C2(CC)Cc3ccccc3C2)c1 [Compound 8, N,N-Diethyl-4-(2-ethylindan-2-yl)-1H-imidazole-1-carboxamide]
caspase-3 activity after Aβ1–42 treatment [1]: significant reduction
pKa [2]: 4.1
Ki (hBChE): 2820 ± 200 nM
kcarb, carbamoylation (hBChE; 25 °C): 3.7±1.7 min^–1
ΔG25°C‡, carbamoylation (hBChE; 25 °C): 19.1 ± 0.3 kcal/mol
reactivation period of the carbamoylated enzyme (hBChE; Table 2): > 10 days
prolongation of decarbamoylation phase (hBChE; compared to 6): > 15 fold
effects in preliminary safety testing (BALB/c mice; 1 mg/kg p.o., mice): no effects were observed
survival (BALB/c mice; 10 mg/kg p.o., 14-day observation): All animals survived
acute cholinergic side effects (salivation, tremors) (BALB/c mice; 10 mg/kg p.o., mice): No acute cholinergic side effects
effects in preliminary safety testing (BALB/c mice; 10 mg/kg p.o., mice): some adrenergic symptoms
onset of symptoms after administration (BALB/c mice; 10 mg/kg p.o., mice): 15 to 30 min
time after which all effects subsided (BALB/c mice; 10 mg/kg p.o., mice): 4 to 5 h
